For experiment [1], the target named is T1, human EP2 receptor (Homo sapiens, UniProt P43116).
T1 construct: expressed in transfected cells
As to the kind of experiment: Binding ability to human EP receptors ([3H]PGE2 displacement), EP2. The settings on record: membranes expressing human EP2; [3H]PGE2 3 nM; Cheng-Prusoff; read-out: pKi (M) EP2 (converted). The protocol: (§1) Membranes were prepared from cells stably transfected with human EP receptor cDNA. In brief, cells were cultured to confluency, scraped from culture flasks, and centrifuged (800 g, 8 minutes, 4° C.). Cells were twice washed in ice cold homogenisation buffer containing 10 mMTris-HCl, 1 mM EDTA.2Na, 250 mM sucrose, 1 mM PMSF, 0.3 mM indomethacin, pH 7.4, homogenised and re-centrifuged as before. The supernatant was stored on ice and pellets re-homogenised and re-spun. Supernatants were pooled and centrifuged at 40000 g, 10 minutes, 4° C. Resultant membrane pellets were stored at −80° C. until use. For assay, membranes expressing human EP4, EP3, EP2 or EP1 receptors were incubated in Millipore (MHVBN45) plates containing assay buffer, radiolabelled [^3H]PGE2 and 0.1 to 10 000 nM concentrations of compounds. Incubations were performed at suitable temperatures and for suitable times to allow equilibrium to be reached. Non-specific binding was determined in the presence of 10 uM PGE2. Bound and free radiolabel was separated by vacuum manifold filtration using appropriate wash buffers, and bound radiolabel was determined by scintillation counting. Constituents of each of the buffers are included in table 1 below. […] Raven Press, New York, 2nd edition.

The target of experiment [2] is T2, human EP4 receptor (Homo sapiens, UniProt P35408).
T2 construct: expressed in transfected cells
Kind of experiment: Binding ability to human EP receptors ([3H]PGE2 displacement), EP4. The following applies: membranes expressing human EP4; [3H]PGE2 1 nM; Cheng-Prusoff; read-out: pKi (M) EP4 (converted). The protocol: as §1

The target of experiment [3] is T3, human EP3 receptor (Homo sapiens, UniProt P43115).
T3 construct: expressed in transfected cells
T3 sequence (P43115 1-390): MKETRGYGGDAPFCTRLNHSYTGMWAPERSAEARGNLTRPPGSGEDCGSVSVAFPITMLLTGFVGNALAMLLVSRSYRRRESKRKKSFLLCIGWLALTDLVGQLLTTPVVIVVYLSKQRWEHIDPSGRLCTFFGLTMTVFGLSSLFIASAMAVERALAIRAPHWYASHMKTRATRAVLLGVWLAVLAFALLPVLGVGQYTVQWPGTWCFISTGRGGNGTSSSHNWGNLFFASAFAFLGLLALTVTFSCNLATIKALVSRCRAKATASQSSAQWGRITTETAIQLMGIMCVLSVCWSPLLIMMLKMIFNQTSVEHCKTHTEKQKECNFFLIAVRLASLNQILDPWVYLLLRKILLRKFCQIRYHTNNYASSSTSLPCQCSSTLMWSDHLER
As to the kind of experiment: Binding ability to human EP receptors ([3H]PGE2 displacement), EP3. The following applies: membranes expressing human EP3; [3H]PGE2 2.5 nM; Cheng-Prusoff; read-out: pKi (M) EP3 (converted). The protocol: as §1

Experiment [4] concerns the target T4, human EP2 prostanoid receptors (Homo sapiens, UniProt P43116).
T4 construct: expressed in transfected cells; host or cells: HEK-293
Kind of experiment: Agonist activity at recombinant human EP2 prostanoid receptors (cAMP in HEK-293 clones). In kind it is cell-based. How it is done: Culture media was Minimal essential media (MEM), supplemented with 10% foetal bovine serum, 100 U/ml penicillin, […] streptomycin, 2.5 μg/ml fungizone, 2mM glutamine. Cells were cultured to confluency (3-4 days) prior to use. Culture media was removed, and confluent cells washed three times in MEM. […] Cells were then stimulated by the addition of 25 μl of PGE2 or agonists prepared in assay buffer. In antagonist studies, cells were pre-incubated with compounds for 30 minutes prior to PGE2-mediated stimulation Plates were incubated for 15 min at 37° C., before termination of the reaction by the addition of 25 μl 1M HCl. The plate was then frozen at -20° C. overnight before determination of cAMP concentration. Stimulated cAMP levels were determined by radioligand displacement binding. In brief, plates were thawed rapidly in a waterbath, and the samples neutralised by the addition of 25 μl 1M NaOH. 30 μl was transferred to Millipore plates pre-coated with 0.5% Polyethylenimine (PEI). Samples were diluted by addition of 90 μl cAMP determination buffer (50 mM Tris, 5 mM EDTA, pH 7.0). […] 15 μl of 2 nM (final concentration) [^3H] cAMP, and 15 μl of 3'5'-cAMP protein kinase (8 μg/well final concentration) prepared in cAMP determination buffer containing 0.1% BSA, were added to each well. Plates were incubated on ice for 2 hours, before bound and free radiolabel were separated by vacuum filtration harvesting using the Millipore vacuum manifold, using ice cold water as the termination buffer. The sealing mat was removed from the Millipore plates, and the filters allowed to dry overnight. 50 μl Microscint 0 (Packard Bioscience) was added to each well, and the plate counted using the Micro-Beta Trilux topcount ^3H program. cAMP accumulation was determined from the standard curve, and values calculated in pmoles cAMP/well. Antagonists affinities (pA2 values) were determined assuming a slope of unity and the […]-Schild equation, where pA2=log [concentration ratio-1]-log[antagonist].

T1 sequence (P43116 whole entry): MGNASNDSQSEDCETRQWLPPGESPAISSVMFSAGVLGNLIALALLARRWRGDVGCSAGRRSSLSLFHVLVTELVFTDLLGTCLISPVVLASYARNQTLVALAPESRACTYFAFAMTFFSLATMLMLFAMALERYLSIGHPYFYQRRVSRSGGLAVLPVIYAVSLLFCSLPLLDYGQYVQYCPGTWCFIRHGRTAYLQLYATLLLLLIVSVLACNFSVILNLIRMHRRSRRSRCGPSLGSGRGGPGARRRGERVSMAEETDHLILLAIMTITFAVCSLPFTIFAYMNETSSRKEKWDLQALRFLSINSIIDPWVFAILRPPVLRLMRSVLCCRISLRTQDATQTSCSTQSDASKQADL
T2 sequence (P35408 whole entry): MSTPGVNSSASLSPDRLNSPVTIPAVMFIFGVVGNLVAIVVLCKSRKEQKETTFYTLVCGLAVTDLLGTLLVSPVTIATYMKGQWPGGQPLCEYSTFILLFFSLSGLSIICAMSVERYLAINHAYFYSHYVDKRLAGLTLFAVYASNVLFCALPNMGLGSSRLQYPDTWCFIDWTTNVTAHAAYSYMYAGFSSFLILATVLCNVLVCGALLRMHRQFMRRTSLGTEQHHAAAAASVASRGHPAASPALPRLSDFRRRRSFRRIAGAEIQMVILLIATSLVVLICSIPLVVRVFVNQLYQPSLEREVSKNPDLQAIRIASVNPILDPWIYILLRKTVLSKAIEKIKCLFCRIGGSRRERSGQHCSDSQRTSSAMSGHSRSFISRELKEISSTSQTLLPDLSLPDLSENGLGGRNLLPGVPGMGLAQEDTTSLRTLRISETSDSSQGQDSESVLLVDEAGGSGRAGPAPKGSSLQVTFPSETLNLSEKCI
T4 sequence (P43116 whole entry): as the sequence (P43116 whole entry) above

With `Cc1ccc(-c2ccc(C(=O)Nc3cccc(CC(=O)O)c3)o2)cc1` [Compound 22, (3-{[5-(4-Methyl-phenyl)-furan-2-carbonyl]-amino}-phenyl)-acetic acid], the Ki in experiment [1] was less than 1e-05 M; in experiment [2], greater than 1e-05 M; in experiment [3], greater than 1e-05 M.
`O=C(O)Cc1cccc(NC(=O)c2ccc(-c3ccccc3C(F)(F)F)o2)c1` [Compound 23, (3-{[5-(2-Trifluoromethyl-phenyl)-furan-2-carbonyl]-amino}-phenyl)-acetic acid]: the figures for the Ki in experiment [1], in experiment [2] and in experiment [3] were less than 1e-05 M, greater than 1e-05 M and greater than 1e-05 M, respectively.
Turning to `O=C(O)Cc1cccc(NC(=O)c2ccc(-c3cccc(C(F)(F)F)c3)o2)c1` [Compound 24, (3-{[5-(3-Trifluoromethyl-phenyl)-furan-2-carbonyl]-amino}-phenyl)-acetic acid], the Ki is less than 1e-06 M in experiment [1], greater than 1e-05 M in experiment [2] and greater than 1e-05 M in experiment [3].
`O=C(O)Cc1cccc(NC(=O)c2ccc(-c3ccc(Cl)cc3Cl)o2)c1` [Compound 25, (3-{[5-(2,4-Dichloro-phenyl)-furan-2-carbonyl]-amino}-phenyl)-acetic acid]: the Ki in experiment [1] is less than 1e-05 M; in experiment [2], greater than 1e-05 M; in experiment [3], greater than 1e-05 M.
On to `Cc1ccccc1-c1ccc(C(=O)Nc2cccc(CC(=O)O)c2)o1` [Compound 28, (3-{[5-(2-Methyl-phenyl)-furan-2-carbonyl]-amino}-phenyl)-acetic acid], for which the figures for the Ki in experiment [1], in experiment [2] and in experiment [3] were less than 1e-06 M, greater than 1e-05 M and greater than 1e-05 M, respectively.
As for `O=C(O)Cc1cccc(NC(=O)c2ccc(-c3cccc(OC(F)(F)F)c3)o2)c1` [Compound 32, (3-{[5-(3-Trifluoromethoxy-phenyl)-furan-2-carbonyl]-amino}-phenyl)-acetic acid], the Ki in experiment [1] was less than 1e-06 M; in experiment [2] it was less than 1e-05 M; in experiment [3], greater than 1e-05 M.
In the case of `O=C(O)Cc1cccc(NC(=O)c2ccc(-c3ccc(OC(F)(F)F)cc3)o2)c1` [Compound 33, (3-{[5-(4-Trifluoromethoxy-phenyl)-furan-2-carbonyl]-amino}-phenyl)-acetic acid], the results for the Ki in experiment [1], in experiment [2] and in experiment [3] were less than 1e-05 M, greater than 1e-05 M and greater than 1e-05 M, respectively.
As for `CC(C)c1ccc(-c2ccc(C(=O)Nc3cccc(CC(=O)O)c3)o2)cc1` [Compound 35, (3-{[5-(4-Isopropyl-phenyl)-furan-2-carbonyl]-amino}-phenyl)-acetic acid], the Ki in experiment [1] is less than 1e-05 M; in experiment [2] it was greater than 1e-05 M; in experiment [3], greater than 1e-05 M.
In the case of `O=C(O)Cc1cccc(NC(=O)c2ccc(-c3ccco3)o2)c1` [Compound 38, {3-[([2,2′]Bifuranyl-5-carbonyl)-amino]-phenyl}-acetic acid], the Ki in experiment [1] is less than 1e-05 M; in experiment [2] it was greater than 1e-05 M; in experiment [3] it was greater than 1e-05 M.
`O=C(O)Cc1cccc(NC(=O)c2ccc(-c3ccccc3)s2)c1` [Compound 43, {3-[(5-Phenyl-thiophene-2-carbonyl)-amino]-phenyl}-acetic acid]: the Ki in experiment [1] was less than 1e-05 M; in experiment [2], greater than 1e-05 M; in experiment [3] it was greater than 1e-05 M.
With `O=C(O)Cc1cccc(NC(=O)c2ccc(F)c(-c3ccccc3)c2)c1` [Compound 46, {3-[(6-Fluoro-biphenyl-3-carbonyl)-amino]-phenyl}-acetic acid], the Ki was less than 1e-05 M in experiment [1], greater than 1e-05 M in experiment [2] and greater than 1e-05 M in experiment [3].
On to `Cc1cc(-c2ccccc2)ccc1C(=O)Nc1cccc(CC(=O)O)c1` [Compound 47, {3-[(3-Methyl-biphenyl-4-carbonyl)-amino]-phenyl}-acetic acid], for which the Ki was less than 1e-06 M in experiment [1], greater than 1e-05 M in experiment [2] and greater than 1e-05 M in experiment [3].
Take `O=C(O)Cc1cccc(NC(=O)c2ccc(-c3ccccc3)cc2Cl)c1` [Compound 48, {3-[(3-Chloro-biphenyl-4-carbonyl)-amino]-phenyl}-acetic acid]: the Ki in experiment [1] is less than 1e-05 M; in experiment [2] it was greater than 1e-05 M; in experiment [3], greater than 1e-05 M.
For `Cc1cc(C(=O)Nc2cccc(CC(=O)O)c2)sc1-c1ccccc1` [Compound 50, {3-[(4-Methyl-5-phenyl-thiophene-2-carbonyl)-amino]-phenyl}-acetic acid], the values for the Ki in experiment [1], in experiment [2] and in experiment [3] were less than 1e-05 M, greater than 1e-05 M and greater than 1e-05 M, respectively.
On to `O=C(O)Cc1cccc(NC(=O)c2cnc(-c3ccccc3)[nH]2)c1` [Compound 53, {3-[(2-Phenyl-1H-imidazole-5-carbonyl)-amino]-phenyl}-acetic acid], for which the Ki was less than 1e-05 M in experiment [1], greater than 1e-05 M in experiment [2] and greater than 1e-05 M in experiment [3].
Take `O=C(O)c1cc2cc(NC(=O)c3ccc(-c4ccccc4)o3)ccc2[nH]1` [Compound 59, 5-[(5-Phenyl-furan-2-carbonyl)-amino]-1H-indole-2-carboxylic acid]: the Ki is less than 1e-05 M in experiment [1], greater than 1e-05 M in experiment [2] and greater than 1e-05 M in experiment [3].
In the case of `O=C(O)c1ccc2cc(NC(=O)c3ccc(-c4ccccc4)o3)ccc2c1` [Compound 63, 6-[(5-Phenyl-furan-2-carbonyl)-amino]-naphthalene-2-carboxylic acid], the Ki in experiment [1] is less than 1e-05 M; in experiment [2], greater than 1e-05 M; in experiment [3] it was greater than 1e-05 M.
With `NC(=O)Cc1cccc(NC(=O)c2ccc(-c3ccccc3)o2)c1` [Compound 73, 5-Phenyl-furan-2-carboxylic acid (3-carbamoylmethyl-phenyl)-amide], the Ki is less than 1e-05 M in experiment [1], greater than 1e-05 M in experiment [2] and greater than 1e-05 M in experiment [3].
For `O=C(Nc1cccc(Cc2nnn[nH]2)c1)c1ccc(-c2ccccc2)o1` [Compound 75, 5-Phenyl-furan-2-carboxylic acid [3-(1H-tetrazol-5-ylmethyl)-phenyl]-amide], the Ki in experiment [1] is less than 1e-07 M; in experiment [2], greater than 1e-05 M; in experiment [3], greater than 1e-05 M.
On to `O=C(Nc1cccc(Cc2nnn[nH]2)c1)c1ccc(-c2cccc(F)c2)o1` [Compound 86, 5-(3-Fluoro-phenyl)-furan-2-carboxylic acid [3-(1H-tetrazol-5-ylmethyl)-phenyl]-amide], for which the Ki in experiment [1] was less than 1e-07 M; in experiment [2], greater than 1e-05 M. In experiment [4] (HEK-293 stably transfected with human EP2, cAMP accumulation, read-out: pEC50 EP2 (converted)), the EC50 is less than 0.1 µM. In experiment [4] (functional classification at EP2), the “activity (EP2 part)” value is listed as “EP2 Agonist”.
For the compound `O=C(O)c1cc2cc(NC(=O)c3ccc(-c4ccccc4)o3)ccc2o1` [Compound 96, 5-[(5-Phenyl-furan-2-carbonyl)-amino]-benzofuran-2-carboxylic acid], the figures for the Ki in experiment [1], in experiment [2] and in experiment [3] were less than 1e-06 M, greater than 1e-05 M and greater than 1e-05 M, respectively.
As to `O=C(O)/C=C/c1cccc(NC(=O)c2ccc(-c3cc(C(F)(F)F)cc(C(F)(F)F)c3)o2)c1` [Compound 102, 3-(3-{[5-(3,5-Bis-trifluoromethyl-phenyl)-furan-2-carbonyl]-amino}phenyl)-acrylic acid], the Ki in experiment [1] was less than 1e-07 M; in experiment [2], greater than 1e-05 M; in experiment [3] it was greater than 1e-05 M.

Source of the values: patent publication US7326732B2, “EP2 receptor agonists” (Pharmagene Laboratories Limited, priority 2004, dated 2008).
